Experimental data published in the supplement of paper PMC11451515.

Key:
Experiment in all cases: AUC of viability dose-response curve (% viability x log10 dose units); higher = less sensitive
Conditions in all cases: 48 h
NOMO1 = test system: NOMO1
Procedure, shortened: (§1)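 Library compounds in DMSO were applied for 48 h at 37°C at 11 threefold doses (47 μM to 0.79 nM) to medium-adapted leukemia cells in 1536-well plates holding 500 or 1000 cells/well. Luminescence from CellTiter-Glo One was normalised plate by plate against DMSO and cell-free wells. Area under the curve came from trapezoidal integration of a log-logistic fit, after scaling curves that rose above full viability and discarding those that failed quality control. The fit had four parameters and used log10 doses.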

P12-Ichikawa = test system: P12-Ichikawa
Procedure, shortened: as §1

SEM cells = test system: SEM cells
Procedure, shortened: as §1

[1] = RPMI 5 mM glucose + 10% dialyzed FBS

| Structure (SMILES) | AUC of viability dose-response curve (NOMO1; HPLM + 10% dialyzed FBS) | AUC of viability dose-response curve (NOMO1; RPMI 5 mM glucose + 10% FBS) | AUC of viability dose-response curve (NOMO1; [1]) | AUC of viability dose-response curve (P12-Ichikawa; HPLM + 10% dialyzed FBS) | AUC of viability dose-response curve (P12-Ichikawa; RPMI 5 mM glucose + 10% FBS) | AUC of viability dose-response curve (P12-Ichikawa; [1]) | AUC of viability dose-response curve (SEM cells; HPLM + 10% dialyzed FBS) | AUC of viability dose-response curve (SEM cells; RPMI 5 mM glucose + 10% FBS) | AUC of viability dose-response curve (SEM cells; [1]) |
| --- | --- | --- | --- | --- | --- | --- | --- | --- | --- |
| COC1=CC=C(C=C1O)C/2=C/C(=O)C3=C(O2)C=C(O[C@@H]4O[C@H](CO[C@@H]5O[C@@H](C)[C@H](O)[C@@H](O)[C@H]5O)[C@@H](O)[C@H](O)[C@H]4O)C=C3O | 456 | 460 | 477 | 461 | 463 | 470 | 461 | 453 | 466 |
| CCN(c1ccccc1)c1cc(NC)[n+](C)c(C)n1 | 456 | 471 | 468 | 469 | 457 | 470 | 464 | 466 | 475 |
| COC(=O)\C1=C\CCN(C)C1 | 473 | 448 | 466 | 446 | 470 | 468 | 473 | 473 | 477 |
| CC(C)(O)c1cc2nc(-c3cnc(N)nc3)nc(N3CCOCC3)c2s1 | 343 | 402 | 334 | 406 | 361 | 363 |  |  |  |
| OC1=CC2=C(C(=C1)O)C(=O)\C(=C(/O2)C3=CC(=C(O)C=C3)O)O | 459 | 465 | 469 | 469 | 471 | 469 | 454 | 470 | 454 |
| C1CCN2C[C@H]3C[C@H](\C=C/4CCCN[C@@H]34)[C@H]2C1 | 462 | 447 | 452 | 456 | 457 | 457 | 465 | 449 | 457 |
| CCOC(=O)Nc1ccc(NCc2ccc(F)cc2)nc1N | 439 | 469 | 469 | 456 | 451 | 464 | 467 | 466 | 461 |
| Nc1nc(Cl)nc2c1ncn2[C@@H]1O[C@H](CO)[C@@H](O)[C@@H]1F |  |  |  | 83.1 | 75.7 | 115 | 68 | 55.4 | 55.4 |
| CC(C)[C@H](N)C(=O)OCCOC[N]1C=NC2=C1\N=C(N)/NC2=O | 457 | 459 | 474 | 475 | 450 | 458 | 467 | 457 | 465 |
| CC/1=C(\O)C(=O)\C=C2/C1=C/C=C3\[C@@]2(C)CC[C@@]4(C)[C@@H]5C[C@@](C)(CC[C@]5(C)CC[C@]34C)C(O)=O | 366 | 360 | 363 | 386 | 360 | 346 | 362 | 355 | 341 |
| CC(C)(O)/C=C\C(=O)[C@](C)(O)[C@H]1[C@H](O)C[C@]2(C)[C@@H]3CC=C4[C@@H](C=C(O)C(=O)C4(C)C)[C@]3(C)C(=O)C[C@@]12C | 272 | 273 | 268 | 269 | 251 | 259 | 234 | 209 | 221 |
| N#C/C(C(=O)c1ccc(Cl)cc1Cl)=C1/NC(=O)c2ccc(Cl)cc2N1 | 453 | 453 | 456 | 451 | 440 | 463 | 459 | 449 | 454 |
| Cc1c[nH]c(-c2cnc(NCCNc3ccc(C#N)cn3)nc2-c2ccc(Cl)cc2Cl)n1 | 398 | 381 | 396 | 397 | 366 | 379 |  |  |  |
| CN1CCN(CCOc2cc(OC3CCOCC3)c3c(Nc4c(Cl)ccc5c4OCO5)ncnc3c2)CC1 | 428 | 463 | 459 | 410 | 446 | 429 | 416 | 378 | 391 |
| C[C@](N)(Cc1ccc(O)c(O)c1)C(=O)O | 391 | 387 | 405 | 427 | 416 | 398 | 395 | 417 | 432 |
| COC1=CC=C2/C3=N/CCN3\C(=N/C2=C1OC)NC(=O)C4=CC=CN=C4 | 427 | 462 | 402 | 457 | 427 | 439 | 452 | 419 | 422 |
